US10954216B2, “BMP-signal-inhibiting compound” (RIKEN, priority 2016, dated 2021)
Like-named read-outs stand apart in the source and are kept apart here.

Assays:
[1] = system: BMP signal in MDA-231-D-BREFluc/Rluc cells; assay: BMP signal inhibitory effect (AlphaScreen SureFire SMAD1 p-Ser463/465, BMP-6 stimulation); type: cell-based
How it was run: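 Read-out was phospho-SMAD1 (Ser463/465) by AlphaScreen SureFire after 30 min BMP-6 stimulation at 37° C. Before stimulation, MDA-231-D-BREFluc/Rluc cells were incubated with test compound at 37° C for 2 h.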

human ALK2 = human ALK2 (Homo sapiens (Human), UniProt Q04771); assay: ALK2 enzyme inhibitory effect (33P-ATP kinase assay, Reaction Biology); type: biochemical; settings: ALK2, 10 μM ATP, 20 μM casein
Description: (§1) ALK Enzyme Inhibitory Effect
(§2) Evaluation conditions were described in the following web pages. http://www.reactionbiology.corrilwebapps/site/Kinase_Assay_Protocol.aspx http://www.reactionbiology.corrilwebapps/site/KinaseDetail.aspx?page=Kinases&id=1

human ALK3 = human ALK3 (Homo sapiens (Human), UniProt P36894); assay: ALK3 enzyme inhibitory effect (33P-ATP kinase assay, Reaction Biology); type: biochemical; settings: for inhibition at 0.3 µM: read-out: Inhibition rate at 300 nM
Description: as §1, §2

human ALK6 = human ALK6 (Homo sapiens (Human), UniProt O00238); assay: ALK6 enzyme inhibitory effect (33P-ATP kinase assay, Reaction Biology); type: biochemical; settings: for inhibition at 0.37 µM: ALK6, test compound 370 nM (asterisk footnote), read-out: inhibition rate at 370 nM; for inhibition at 0.3 µM: read-out: Inhibition rate at 300 nM
Description: as §1, §2

[2] = BMP-6 stimulated MDA-231-D-BREFluc/Rluc cells, phospho-SMAD1 AlphaScreen, read-out: IC50

Sequence of human ALK2 (Q04771 21-509): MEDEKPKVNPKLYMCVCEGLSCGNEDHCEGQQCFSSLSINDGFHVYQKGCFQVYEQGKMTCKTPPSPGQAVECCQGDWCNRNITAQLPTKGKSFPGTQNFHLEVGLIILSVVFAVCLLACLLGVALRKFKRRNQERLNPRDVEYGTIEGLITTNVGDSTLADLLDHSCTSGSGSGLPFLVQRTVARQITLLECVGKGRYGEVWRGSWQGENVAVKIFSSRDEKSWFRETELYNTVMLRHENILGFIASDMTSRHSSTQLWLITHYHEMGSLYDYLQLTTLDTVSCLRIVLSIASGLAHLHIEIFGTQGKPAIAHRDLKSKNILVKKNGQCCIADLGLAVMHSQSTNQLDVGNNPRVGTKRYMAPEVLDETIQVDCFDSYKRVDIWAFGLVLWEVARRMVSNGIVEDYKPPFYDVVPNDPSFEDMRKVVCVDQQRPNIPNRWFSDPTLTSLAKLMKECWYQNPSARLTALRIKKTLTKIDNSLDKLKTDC
Sequence of human ALK6 (O00238 14-502): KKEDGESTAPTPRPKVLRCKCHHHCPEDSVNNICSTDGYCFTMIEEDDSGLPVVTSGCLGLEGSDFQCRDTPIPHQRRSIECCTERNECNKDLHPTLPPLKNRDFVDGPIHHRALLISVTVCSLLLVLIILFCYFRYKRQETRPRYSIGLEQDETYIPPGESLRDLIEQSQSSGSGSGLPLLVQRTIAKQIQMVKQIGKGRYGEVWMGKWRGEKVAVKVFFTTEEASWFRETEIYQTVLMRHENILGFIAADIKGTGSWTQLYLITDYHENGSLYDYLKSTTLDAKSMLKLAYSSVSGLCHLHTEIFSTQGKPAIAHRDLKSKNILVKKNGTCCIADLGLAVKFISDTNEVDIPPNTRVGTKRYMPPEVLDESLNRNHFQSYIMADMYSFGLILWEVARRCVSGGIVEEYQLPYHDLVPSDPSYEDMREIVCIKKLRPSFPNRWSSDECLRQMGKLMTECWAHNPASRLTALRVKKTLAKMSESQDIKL
Sequence of human ALK3 (P36894 24-532): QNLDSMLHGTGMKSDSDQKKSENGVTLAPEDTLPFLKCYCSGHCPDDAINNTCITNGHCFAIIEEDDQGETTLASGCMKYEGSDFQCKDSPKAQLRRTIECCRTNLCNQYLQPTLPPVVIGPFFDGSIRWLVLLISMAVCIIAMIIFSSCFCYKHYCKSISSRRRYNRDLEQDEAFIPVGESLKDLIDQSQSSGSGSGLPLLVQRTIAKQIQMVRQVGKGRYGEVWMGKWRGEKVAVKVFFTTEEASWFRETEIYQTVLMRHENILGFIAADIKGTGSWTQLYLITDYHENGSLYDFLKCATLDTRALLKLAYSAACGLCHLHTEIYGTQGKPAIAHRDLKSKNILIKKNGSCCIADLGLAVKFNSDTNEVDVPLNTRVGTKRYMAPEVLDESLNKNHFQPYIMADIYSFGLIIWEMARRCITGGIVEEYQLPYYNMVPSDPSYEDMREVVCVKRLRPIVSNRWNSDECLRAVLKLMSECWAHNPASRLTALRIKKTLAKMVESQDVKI

| Structure (SMILES) | IC50 [1, 2] [nM] | IC50 (human ALK2) [nM] | also measured |
| --- | --- | --- | --- |
| CCn1cc(-c2ccnc(Nc3ccc(N4CCN(C(C)C)CC4)cc3)n2)c(-c2cccnc2)n1 [Example 16, 4-(1-ethyl-3-(pyridin-3-yl)-1H-pyrazol-4-yl)-N-(4-(4-isopropylpiperazin-1-yl)phenyl)pyrimidin-2-amine] | 12.8 | 6.6 |  |
| CCn1cc(-c2ccnc(Nc3ccc(C(N)=O)cc3)n2)c(-c2cccnc2)n1 [Example 23, 4-((4-(1-Ethyl-3-(pyridin-3-yl)-1H-pyrazol-4-yl)pyrimidin-2-yl)amino)benzamide] | 33.8 |  | inhibition at 0.3 µM (human ALK3; ALK3, test compound 300 nM): 52% |
| CCn1cc(-c2ccnc(Nc3ccc(N4CCN(CC5CC5)CC4)cc3)n2)c(-c2cccnc2)n1 [Example 33, N-(4-(4-(Cyclopropylmethyl)piperazin-1-yl)phenyl)-4-(1-ethyl-3-(pyridin-3-yl)-1H-pyrazol-4-yl)pyrimidin-2-amine] | 7.8 | 6.1 |  |
| COCCN1CCN(c2ccc(Nc3nccc(-c4cn(CCOC)nc4-c4cccnc4)n3)cc2)CC1 [Example 37, 4-(1-(2-Methoxyethyl)-3-(pyridin-3-yl)-1H-pyrazol-4-yl)-N-(4-(4-(2-methoxyethyl)-piperazin-1-yl)phenyl)pyrimidin-2-amine] | 31.3 | 10.4 |  |
| CCn1cc(-c2ccnc(Nc3cccc(CN4CCOCC4)c3)n2)c(-c2cccnc2)n1 [Example 41, 4-(1-ethyl-3-(pyridin-3-yl)-1H-pyrazol-4-yl)-N-(3-(morpholinomethyl)phenyl)pyrimidin-2-amine] | 11.9 | 68 | inhibition at 0.3 µM (human ALK6; ALK6, test compound 300 nM): 78% |
| CCn1cc(-c2ccnc(Nc3ccc(S(=O)(=O)N(C)C4CCN(C(C)C)CC4)cc3)n2)c(-c2cccnc2)n1 [Example 124] | 16 | 61.5 | inhibition at 0.3 µM (human ALK6; ALK6, test compound 300 nM): 87% |
| CN1CCN(c2ccc(Nc3nccc(-c4c[nH]nc4-c4cccnc4)n3)cc2)CC1 [Example 127, N-(4-(4-Methylpiperazin-1-yl)phenyl)-4-(3-(pyridin-3-yl)-1H-pyrazol-4-yl)pyrimidin-2-amine] | 22.4 |  | inhibition at 0.37 µM (human ALK3; ALK3, test compound 370 nM (asterisk footnote), read-out: inhibition rate at 370 nM): 55.2%; inhibition at 0.37 µM (human ALK6): 82.8% |
| O=C(c1ccc(Nc2nccc(-c3cn(Cc4ccccc4)nc3-c3cccnc3)n2)cc1)N1CCNCC1 [Example 138, (4-((4-(1-Benzyl-3-(pyridin-3-yl)-1H-pyrazol-4-yl)pyrimidin-2-yl)amino)phenyl) (piperazin-1-yl)methanone] | 22.4 |  | inhibition at 0.3 µM (human ALK6; ALK6, test compound 300 nM): 83.8% |
| CCn1cc(-c2ccnc(Nc3ccc(N4CC5CCC(C4)N5)cc3)n2)c(-c2cccnc2)n1 [Example 143, N-(4-(3,8-Diazabicyclo[3.2.1]octan-3-yl)phenyl)-4-(1-ethyl-3-(pyridin-3-yl)-1H-pyrazol-4-yl)pyrimidin-2-amine] |  |  | IC50 [1]: 9.2 nM; inhibition at 0.3 µM (human ALK3): 57%; inhibition at 0.3 µM (human ALK6): 91% |
| CCn1cc(-c2ccnc(Nc3ccc(N4CC5CCC(C4)N5)nc3)n2)c(-c2cccnc2)n1 [Example 144, N-(6-(3,8-Diazabicyclo[3.2.1]octan-3-yl)pyridin-3-yl)-4-(1-ethyl-3-(pyridin-3-yl)-1H-pyrazol-4-yl)pyrimidin-2-amine] |  |  | IC50 [1]: 16.7 nM; inhibition at 0.3 µM (human ALK3): 46%; inhibition at 0.3 µM (human ALK6): 86% |
| CCn1cc(-c2ccnc(Nc3ccc(N4CCNCC4)cc3)n2)c(-c2cncc(F)c2)n1 [Example 148, 4-(1-Ethyl-3-(5-fluoropyridin-3-yl)-1H-pyrazol-4-yl)-N-(4-(piperazin-1-yl)phenyl)pyrimidin-2-amine] | 14.8 | 51 | inhibition at 0.3 µM (human ALK6; ALK6, test compound 300 nM): 79.4% |
| N#Cc1cccc(Cn2cc(-c3ccnc(Nc4ccc(N5CCNCC5)cc4)n3)c(-c3cccnc3)n2)c1 [Example 156, 3-((4-(2-((4-(Piperazin-1-yl)phenyl)amino)pyrimidin-4-yl)-3-(pyridin-3-yl)-1H-pyrazol-1-yl)methyl)benzonitrile] | 24.3 | 6.1 |  |
| CCn1cc(-c2ccnc(Nc3ccc(N4CCN(CC(=O)O)CC4)cc3)n2)c(-c2cccnc2)n1 [Example 173, 2-(4-(4-((4-(1-Ethyl-3-(pyridin-3-yl)-1H-pyrazol-4-yl)pyrimidin-2-yl)amino)phenyl)piperazin-1-yl)acetic acid] | 47.6 |  |  |

Now from value to molecule, other results behind:

| IC50 [1, 2] [nM] | IC50 (human ALK2) [nM] | Structure (SMILES) | also measured |
| --- | --- | --- | --- |
| 48.5 |  | c1cncc(-c2n[nH]cc2-c2ccnc(Nc3ccc(OCCN4CCOCC4)cc3)n2)c1 [Example 25, N-(4-(2-morpholinoethoxy)phenyl)-4-(3-(pyridin-3-yl)-1H-pyrazol-4-yl)pyrimidin-2-amine] | inhibition at 0.37 µM (human ALK6): 47.7% |
| 58.5 | 17.7 | CCn1cc(-c2ccc(Nc3nccc(-c4cn(CC)nc4-c4cccnc4)n3)cc2)cn1 [Example 27, N-(4-(1-ethyl-1H-pyrazol-4-yl)phenyl)-4-(1-ethyl-3-(pyridin-3-yl)-1H-pyrazol-4-yl)pyrimidin-2-amine] |  |
| 29.4 |  | CCn1cc(-c2ccnc(Nc3ccc(-c4cnn(CC(F)F)c4)cc3)n2)c(-c2cccnc2)n1 [Example 29, N-(4-(1-(2,2-Difluoroethyl)-1H-pyrazol-4-yl)phenyl)-4-(1-ethyl-3-(pyridin-3-yl)-1H-pyrazol-4-yl)pyrimidin-2-amine] | inhibition at 0.3 µM (human ALK3; ALK3, test compound 300 nM): 66.1%; inhibition at 0.3 µM (human ALK6; ALK6, test compound 300 nM): 91.3% |
| 18.8 | 25.5 | CCn1cc(-c2ccnc(Nc3ccc(N4CCN(C)CC4)cc3)n2)c(-c2cccnc2)n1 [Example 46, 4-(1-Ethyl-3-(pyridin-3-yl)-1H-pyrazol-4-yl)-N-(4-(4-methylpiperazin-1-yl)phenyl)pyrimidin-2-amine] |  |
| 16.2 |  | Fc1ccc(Cn2cc(-c3ccnc(Nc4ccc(N5CCNCC5)cc4)n3)c(-c3cccnc3)n2)cc1 [Example 139, 4-(1-(4-Fluorobenzyl)-3-(pyridin-3-yl)-1H-pyrazol-4-yl)-N-(4-(piperazin-1-yl)phenyl)pyrimidin-2-amine] | inhibition at 0.3 µM (human ALK3; ALK3, test compound 300 nM): 54.3%; inhibition at 0.3 µM (human ALK6; ALK6, test compound 300 nM): 90.6% |
| 22.6 | 57 | CCn1cc(-c2ccnc(Nc3cccc(OC4CCNCC4)c3)n2)c(-c2cccnc2)n1 [Example 165, 4-(1-Ethyl-3-(pyridin-3-yl)-1H-pyrazol-4-yl)-N-(3-(piperidin-4-yloxy)phenyl) pyrimidin-2-amine] |  |
| 37 |  | CCn1cc(-c2ccnc(Nc3ccc(N4CCN(C(=O)CO)CC4)cc3)n2)c(-c2cccnc2)n1 [Example 174, 1-(4-(4-((4-(1-ethyl-3-(pyridin-3-yl)-1H-pyrazol-4-yl)pyrimidin-2-yl)amino)phenyl)piperazin-1-yl)-2-hydroxyethan-1-one] |  |
| 8.5 | 3.5 | CCn1cc(-c2ccnc(Nc3ccc(N4CCC(N)(CC)CC4)cc3)n2)c(-c2cccnc2)n1 [Example 177, N-(4-(4-Amino-4-ethylpiperidin-1-yl)phenyl)-4-(1-ethyl-3-(pyridin-3-yl)-1H-pyrazol-4-yl)pyrimidin-2-amine] |  |
| 14.8 |  | CCn1cc(-c2ccnc(Nc3ccc(N4CCC(C(C)(C)N)CC4)cc3)n2)c(-c2cccnc2)n1 [Example 178] |  |
| 9.1 |  | CCn1cc(-c2ccnc(Nc3ccc(-n4cnc(N5CCN(C)CC5)n4)cc3)n2)c(-c2cccnc2)n1 [Example 180, 4-(1-ethyl-3-(pyridin-3-yl)-1H-pyrazol-4-yl)-N-(4-(3-(4-methylpiperazin-1-yl)-1H-1,2,4-triazol-1-yl)phenyl)pyrimidin-2-amine] |  |
